In experiment [1] the target is T1, RAR γ (Homo sapiens, UniProt P13631).
T1 sequence (P13631 1-454): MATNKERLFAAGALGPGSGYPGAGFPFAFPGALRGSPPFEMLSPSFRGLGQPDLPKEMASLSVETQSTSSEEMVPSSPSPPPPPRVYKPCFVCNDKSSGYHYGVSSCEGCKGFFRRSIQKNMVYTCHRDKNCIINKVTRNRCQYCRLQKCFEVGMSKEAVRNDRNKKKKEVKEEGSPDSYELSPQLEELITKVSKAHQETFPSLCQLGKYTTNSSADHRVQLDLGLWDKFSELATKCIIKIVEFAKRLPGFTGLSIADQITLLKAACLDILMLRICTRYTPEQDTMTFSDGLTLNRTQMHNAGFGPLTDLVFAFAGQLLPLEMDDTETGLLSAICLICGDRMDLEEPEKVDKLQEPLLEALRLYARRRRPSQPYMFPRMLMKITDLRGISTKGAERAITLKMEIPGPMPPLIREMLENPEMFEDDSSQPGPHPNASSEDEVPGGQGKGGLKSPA
The experiment in a line: Affinity for RAR γ receptor (Kd). The settings on record: read-out: Affinities for receptors Kd, RAR γ. The format is binding. Here is the method: (§1) Biological activities of certain compounds described and exemplified above:
(§2) ^(a) The affinites for the RARs were determined under the conditions
(§3) described in B. Martin et al, "Selective Synthetic Ligands for Human
(§4) Nuclear Retinoic Acid Receptors," Skin Pharmacol., 5, 57-65 (1992).

Experiment [2] relates to F9 cells. The experiment in a line: Antagonist activity with respect to the differentiation of F9 cells. In kind it is cell-based. The settings on record: Mus musculus; coincubation with reference agonist (F9 AC50 = 4nM). The procedure:
Their activities may also be measured in tests of cellular transactivation using previously transfected recombinant RAR or RXR receptors (B. A. Bernard et al, Biochemical and Biophysical Research Communications, vol. 186, pp. 977-983 (1992)); M. F. Boehm et al, Journal of Medicinal Chemistry, p37, pp. 408-414 (1994)).
^(b) The antagonist activity was determined by coincubating a
[N(4-carboxybenzyl)-5,6,7,8-tetrahydro-5,5,8,8-tetramethyl-2-naphthylamin
(F9 AC50 = 4nM)] and different concentrations of the test retinoid.
These experiments were carried out under conditions for the determination
of activity with respect to the differentiation of F9 cells according to
the technique described in M. Darmon, M. Rocher, M. T. Cavey, B. Martin,
T. Rabilloud, C. Delescluse and B. Shroot, "Biological activity of
retinoids correlates with affinity for nuclear receptors, but not for
cytosolic binding protein," Skin Pharmacol., 1, 161-175 (1988).

The target of experiment [3] is T2, RAR β (Homo sapiens, UniProt P10826).
T2 sequence (P10826 1-448 isoform P10826-2): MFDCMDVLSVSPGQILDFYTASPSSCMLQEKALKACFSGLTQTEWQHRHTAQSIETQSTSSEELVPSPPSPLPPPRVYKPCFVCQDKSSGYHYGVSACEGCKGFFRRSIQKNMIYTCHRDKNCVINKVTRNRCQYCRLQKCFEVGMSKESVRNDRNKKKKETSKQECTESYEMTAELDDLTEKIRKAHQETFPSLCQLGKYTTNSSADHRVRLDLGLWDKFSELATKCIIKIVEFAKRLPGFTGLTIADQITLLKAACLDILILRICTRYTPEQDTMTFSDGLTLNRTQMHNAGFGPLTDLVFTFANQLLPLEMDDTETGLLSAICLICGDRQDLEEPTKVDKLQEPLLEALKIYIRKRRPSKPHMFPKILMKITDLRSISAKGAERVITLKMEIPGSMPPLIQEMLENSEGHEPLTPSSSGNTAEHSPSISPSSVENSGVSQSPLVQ
The experiment in a line: Affinity for RAR β receptor (Kd). The format is binding. The settings on record: read-out: Affinities for receptors Kd, RAR β. The procedure:
as §1, §2, §3, §4

The target of experiment [4] is T3, RAR α (Homo sapiens, UniProt P10276).
T3 sequence (P10276 1-462): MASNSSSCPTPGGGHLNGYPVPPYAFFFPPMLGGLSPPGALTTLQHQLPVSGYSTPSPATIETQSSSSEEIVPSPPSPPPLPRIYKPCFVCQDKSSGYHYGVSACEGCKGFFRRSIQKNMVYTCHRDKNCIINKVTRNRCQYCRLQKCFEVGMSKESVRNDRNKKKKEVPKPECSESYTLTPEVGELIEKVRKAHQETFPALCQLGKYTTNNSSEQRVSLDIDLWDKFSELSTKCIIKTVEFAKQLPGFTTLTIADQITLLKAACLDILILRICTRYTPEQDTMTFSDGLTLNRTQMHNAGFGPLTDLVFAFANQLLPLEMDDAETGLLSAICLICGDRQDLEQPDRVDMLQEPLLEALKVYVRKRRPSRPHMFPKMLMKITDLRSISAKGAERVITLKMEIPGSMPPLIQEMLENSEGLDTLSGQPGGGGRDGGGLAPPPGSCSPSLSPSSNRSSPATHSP
Kind of experiment: Affinity for RAR α receptor (Kd). The settings on record: read-out: Affinities for receptors Kd, RAR α. The format is binding. Here is the method:
as §1, §2, §3, §4

For experiment [5], the system named is F9 cells. Kind of experiment: Agonist activity, differentiation of F9 cells. The settings on record: Mus musculus, reference agonist. The format is cell-based.

The values below come from US5747530A, “Aromatic dibenzofuran compounds and pharmaceutical/cosmetic compositions comprised thereof” (Centre International de Recherches Dermatologiques Galderma, priority 1994, dated 1998).

Take `CC12CCC(C1)C1(C)Oc3ccc(C(=O)/C=C/c4ccc(C(=O)O)cc4)cc3C21C` (single isomer, unassigned) [Example 23, 4-[(E)-3-(1,2,3,4-Tetrahydro-1,4a,9b-trimethyl-1,4-methanodibenzofuran-8-yl)-3-oxo-1-propenyl]benzoic acid]: the dissociation constant (Kd) (usually the concentration at which binding is half-saturated) came out at 0.027 µM in experiment [1], 0.053 µM in experiment [3] and 0.22 µM in experiment [4]. The half-inhibitory concentration (IC50) (in general, the concentration needed to halve the response being measured) in experiment [2] was 0.019 µM.
The like results for `CC12CCC(C1)C1(C)Oc3ccc(C(=O)COc4ccc(C(=O)O)c(O)c4)cc3C21C` (stereo not drawn) [Example 15, 4-[2-(1,2,3,4-tetrahydro-1,4a,9b-trimethyl-1,4-methanodibenzofuran-8-yl)-2-oxoethoxy]-2-hydroxybenzoic acid] were, in that order, 0.15 µM, 0.114 µM, 2.5 µM and 0.055 µM.
On to `CC1(C)CCC(C)(C)c2cc(NCc3ccc(C(=O)O)cc3)ccc21` [N(4-carboxybenzyl)-5,6,7,8-tetrahydro-5,5,8,8-tetramethyl-2-naphthylamin], for which the activity in experiment [5] was half-maximal at 0.004 µM (AC50).
For `CC12CCC(C1)C1(C)Oc3ccc(C(O)COc4ccc(C(=O)O)cc4)cc3C21C` (stereo not drawn) [Example 13, 4-[2-(1,2,3,4-tetrahydro-1,4a,9b-trimethyl-1,4-methanodibenzofuran-8-yl)-2-hydroxyethoxy]benzoic acid], the dissociation constant (Kd) in experiment [1] was 0.04 µM; in experiment [3], 0.23 µM; in experiment [4], above 3.2 µM. The half-maximal inhibitory concentration (IC50) in experiment [2] was 0.036 µM.
The corresponding values for `CC12CCC(C1)C1(C)Oc3ccc(CCOc4ccc(C(=O)O)c(O)c4)cc3C21C` (stereo not drawn) [Example 17, 4-[2-(1,2,3,4-tetrahydro-1,4a,9b-trimethyl-1,4-methanodibenzofuran-8-yl)ethoxy]-2-hydroxybenzoic acid] are 2.25 µM, 0.315 µM, above 10 µM and 0.27 µM.
With `CC12CCC(C1)C1(C)Oc3ccc(C(=O)COc4ccc(C(=O)O)cc4)cc3C21C` (stereo not drawn) [Example 12, 4-[2-(1,2,3,4-tetrahydro-1,4a,9b-trimethyl-1,4-methanodibenzofuran-8-yl)-2-oxoethoxy]benzoic acid], the equilibrium dissociation constant (Kd) in experiment [1] is 0.481 µM; in experiment [3], 0.745 µM; in experiment [4], 3.2 µM. The IC50 in experiment [2] stood at 0.04 µM.
